Assay results taken from patent publication EP0364584A1, “ANTIDOTE FOR ORGANIC PHOSPHORUS COMPOUND POISONING” (priority 1988, dated 1989).
Like-named read-outs stand apart in the source and are kept apart here.

What was measured:
[1] = target: T1, Azetylcholinesterase des menschlichen Bluts (Homo sapiens, UniProt P22303); assay: Reactivation in vitro of erythrocyte cholinesterase inhibited by organophosphorus compounds (potentiometric titration); format: biochemical; settings: reactivator 1.10^-4 M01/1, 25°C, pH 7,5
T1 construct: Cholinesterase des Grundgerüstes der Erythrozyten des menschlichen Bluts; from tissue; host or cells: human erythrocyte stroma (ghosts)
T1 sequence (P22303 other isoform, or with tags, fused parts or gaps): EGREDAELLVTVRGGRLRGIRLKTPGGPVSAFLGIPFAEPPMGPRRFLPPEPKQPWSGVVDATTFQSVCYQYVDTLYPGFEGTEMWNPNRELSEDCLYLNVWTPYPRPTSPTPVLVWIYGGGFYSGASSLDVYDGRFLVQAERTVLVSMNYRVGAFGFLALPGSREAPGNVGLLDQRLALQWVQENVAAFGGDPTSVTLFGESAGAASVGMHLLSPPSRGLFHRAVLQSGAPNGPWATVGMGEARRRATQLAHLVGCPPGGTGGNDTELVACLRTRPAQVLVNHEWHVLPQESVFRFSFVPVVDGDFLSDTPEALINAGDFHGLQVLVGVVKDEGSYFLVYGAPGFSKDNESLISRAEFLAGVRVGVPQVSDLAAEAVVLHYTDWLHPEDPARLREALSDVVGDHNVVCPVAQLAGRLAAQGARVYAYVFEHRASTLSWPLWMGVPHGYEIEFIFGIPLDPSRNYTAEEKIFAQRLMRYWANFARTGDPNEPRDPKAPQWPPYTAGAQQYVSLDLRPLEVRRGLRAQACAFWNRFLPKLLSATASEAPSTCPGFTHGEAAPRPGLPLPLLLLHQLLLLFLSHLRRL

[2] = Content of the drugs in blood and brain after intramuscular administration (Askew method); format: in vivo, Ratten; settings: rat, im, Ratten; for concentration at 2 h: 2 St., read-out: Konzentration (µg/g) 2 St. (converted); for concentration at 5 min: read-out: Konzentration (µg/g) 5 min; for concentration at 20 min: read-out: Konzentration (µg/g) 20 min (converted); for concentration at 0.5 h: 30 min, read-out: Konzentration (µg/g) 30 min; for concentration at 1 h: I St., read-out: Konzentration (µg/g) I St.; for concentration at 10 min: IO min, read-out: Konzentration (µg/g) IO min (converted)
Method: Mit Hilfe der Methode von Askew (1956) wurde in der Dynamik der Gehalt des erfindungsgemäßen Arzneimittels im Blut und Gehirn der Tiere untersucht. Die Untersuchungen wurden im Vergleich zum bekannten Präparak TMB-4 vorgenommen. Die Geschwindigkeit des Eindringens beider Präparate ins Blut und deren Konzentration wurden bei der-intramuskulären Einführung in Dosen von 20 ..und 50 mg/kg und der Gehirnspiegel - in einer Dosis von 50 mg/kg bestimmt. […]
Es wurde festgestellt, daß die Präparate schnell (nach 5 min) von der Einführungsstelle ins Blut eindringen, dabei wurde unabhängig von der Prüfdosis der Präparate deren Maximalgehalt im Blut 20 min nach der Einführung beobachtet, zwar erhöhte die Vergrößerung der Dosis der Präparate bis 50 mg/kg wesentlich deren Konzentrationsniveau während der ganzen Beobachtungsfrist.
Die im Vergleich zu TMB-4 durchgeführten Untersuchungen haben ergeben, dass während der ersten Stunde der Blutgehalt und das Anwachsen der Konzentrationen beider Präparate gleich waren. […] Die Untersuchungsergebnisse sind in der Tabelle 3 angeführt.
Nach den Ergebnissen der durchgeführten Untersuchungen wurde festgestellt, dass das erfindungsgemässe Arz- neimittel bei der intramuskulären Einführung schnell ins Blut und Gehirn des Tieres eindringt und zum Unterschied von TMB-4 eine längere Zeit im 3lutstrom zirkuliert und von 5 min an bis 4 Stunden Beobachtung im Gehirn in bedeutend grösseren Mengen enthalten ist.

[3] = blood, Blut, Dosis 20 mg/kg intramuskulär
[4] = blood, Blut, Dosis 50 mg/kg intramuskulär
[5] = brain, Gehirn, Dosis 50 mg/kg intramuskulär

## ON=Cc1cc[n+](CCC[n+]2ccc(C=NO)cc2)cc1 [TMB-4, Trimethylen-1,3-bis-(4-oxyiminomethylpyridinium)bromid, reference compound]
[1]; 0.5 h, pH 7, inhibited with O,O-Dimethyl-(2,2,2-trichlor-1-oxyäthyl) phosphonat, 0,5 h, read-out: Aktivität der Azetylcholinesterase in % (Reaktivationszeit in Stunden) 0,5
  activity at 100 µM: 40%
[1]; 0.5 h, pH 7, inhibited with O,O-Dimethyl-S-(1,2-dikarbäthoxyäthyl)-dithiophosphat, 0,5 h, read-out: Aktivität der Azetylcholinesterase in % (Reaktivationszeit in Stunden) 0,5
  activity at 100 µM: 27.4%
[1]; 1 h, pH 7, inhibited with O,O-Dimethyl-(2,2,2-trichlor-1-oxyäthyl) phosphonat, 1 h, read-out: Aktivität der Azetylcholinesterase in % (Reaktivationszeit in Stunden) 1
  activity at 100 µM: 51%
[1]; 1 h, pH 7, inhibited with O,O-Dimethyl-S-(1,2-dikarbäthoxyäthyl)-dithiophosphat, 1 h, read-out: Aktivität der Azetylcholinesterase in % (Reaktivationszeit in Stunden) 1
  activity at 100 µM: 43%
[1]; 2 h, pH 7, inhibited with O,O-Dimethyl-(2,2,2-trichlor-1-oxyäthyl) phosphonat, 2 h, read-out: Aktivität der Azetylcholinesterase in % (Reaktivationszeit in Stunden) 2
  activity at 100 µM: 64.2%
[1]; 2 h, pH 7, inhibited with O,O-Dimethyl-S-(1,2-dikarbäthoxyäthyl)-dithiophosphat, 2 h, read-out: Aktivität der Azetylcholinesterase in % (Reaktivationszeit in Stunden) 2
  activity at 100 µM: 52.9%
[2]; [3]
  concentration at 2 h: 0.41 µg/g
  concentration at 5 min: 3.6 µg/g
  concentration at 20 min: 4.85 µg/g
  concentration at 0.5 h: 4.35 µg/g
  concentration at 1 h: 2.75 µg/g
  concentration at 10 min: 4.42 µg/g
[2]; [4]
  concentration at 2 h: 2.42 µg/g
  concentration at 5 min: 16.6 µg/g
  concentration at 20 min: 18.4 µg/g
  concentration at 0.5 h: 15.1 µg/g
  concentration at 1 h: 11.5 µg/g
  concentration at 10 min: 21.1 µg/g
[2]; blood, Blut, Dosis 50 mg/kg intramuskulär, 3 St., read-out: Konzentration (µg/g) 3 St.
  concentration at 3 h: 1.95 µg/g
[2]; [5]
  concentration at 2 h: 0.34 µg/g
  concentration at 5 min: 0.86 µg/g
  concentration at 20 min: 2.32 µg/g
  concentration at 0.5 h: 2.28 µg/g
  concentration at 1 h: 1.5 µg/g
  concentration at 10 min: 0.98 µg/g
